Activity calls are given as the source filed them. The rule behind the calls is not given here.
How the values were obtained:
MIA PaCa-2 [1] = test: Synergistic ferroptosis activity in human MIA-PaCa-2 cells at upto 1 uM measured after 7 days in presence of FIN56 by crystal violet staining based analysis; type: functional, cell-based; conditions: time 7.0 day
[2] = molecular target: 5-hydroxytryptamine receptor 2C (Homo sapiens, UniProt P28335); test: Binding affinity to 5-HT2C receptor (unknown origin) assessed as inhibition constant
5-hydroxytryptamine receptor 2C, sequence (P28335 whole entry): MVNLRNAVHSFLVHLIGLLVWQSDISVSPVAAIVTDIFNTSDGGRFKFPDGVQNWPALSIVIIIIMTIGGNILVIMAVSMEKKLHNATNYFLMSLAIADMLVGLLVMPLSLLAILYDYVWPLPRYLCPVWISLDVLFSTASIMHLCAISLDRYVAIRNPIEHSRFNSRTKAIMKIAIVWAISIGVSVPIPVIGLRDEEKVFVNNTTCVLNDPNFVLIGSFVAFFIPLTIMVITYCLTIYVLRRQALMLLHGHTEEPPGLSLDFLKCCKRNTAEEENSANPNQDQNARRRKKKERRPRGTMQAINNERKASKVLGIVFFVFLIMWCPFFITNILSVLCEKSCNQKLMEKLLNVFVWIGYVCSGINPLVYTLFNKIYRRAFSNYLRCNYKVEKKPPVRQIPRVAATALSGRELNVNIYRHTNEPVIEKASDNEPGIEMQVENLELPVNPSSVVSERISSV

MIA PaCa-2 [3] = test: Additive ferroptosis activity in human MIA-PaCa-2 cells at upto 1 uM measured after 7 days in presence of FIN56 by crystal violet staining based analysis; type: functional, cell-based; conditions: time 7.0 day
[4] = Apparent oral clearance in CD-1 mouse plasma at 20 mg/kg, po; type: ADME, organism-based
HCT-116 [5] = test: Induction of apoptosis in human HCT-116 cells assessed as viable cells at 1.0 uM measured after 48 hrs by Annexin V-Alexa Fluor 488/propidium iodide staining based flow cytometry (reference value: 79.69%); type: functional; conditions: read-out: Activity
[6] = molecular target: Muscarinic acetylcholine receptor M2 (Homo sapiens, UniProt P08172); test: Binding affinity to M2 receptor (unknown origin) assessed as inhibition constant
Muscarinic acetylcholine receptor M2, sequence (P08172 whole entry): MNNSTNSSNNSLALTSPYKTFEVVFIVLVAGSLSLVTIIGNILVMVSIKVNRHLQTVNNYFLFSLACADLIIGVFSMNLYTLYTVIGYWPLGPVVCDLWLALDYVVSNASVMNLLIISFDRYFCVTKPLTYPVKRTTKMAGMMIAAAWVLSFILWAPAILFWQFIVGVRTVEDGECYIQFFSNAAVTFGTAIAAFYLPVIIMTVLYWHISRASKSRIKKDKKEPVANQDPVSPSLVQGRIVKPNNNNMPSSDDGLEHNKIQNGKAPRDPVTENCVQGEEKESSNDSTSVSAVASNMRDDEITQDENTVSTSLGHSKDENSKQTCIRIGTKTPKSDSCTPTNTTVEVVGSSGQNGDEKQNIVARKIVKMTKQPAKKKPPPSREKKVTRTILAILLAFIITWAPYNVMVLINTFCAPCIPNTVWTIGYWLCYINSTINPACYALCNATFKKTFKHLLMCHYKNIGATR

[7] = Solubility of the compound; type: physicochemical
MIA PaCa-2 [8] = test: Upregulation of GRP78 in human MIA PaCa-2 cells at 10 uM measured after 24 hrs by Western blot analysis; type: functional, cell-based
MIA PaCa-2 [9] = test: Induction of apoptosis in human MIA PaCa-2 cells assessed as late apoptotic cells at 1.0 uM measured after 48 hrs by Annexin V-Alexa Fluor 488/propidium iodide staining based flow cytometry (reference value: 6.63%); type: functional
HCT-116 [10] = test: Induction of apoptosis in human HCT-116 cells assessed as viable cells at […] measured after 48 hrs by Annexin V-Alexa Fluor 488/propidium iodide staining based flow cytometry (reference value: 79.69%); type: functional; conditions: dose 2.5 µM, read-out: Activity
MIA PaCa-2 [11] = test: Induction of cell cycle arrest in human MIA PaCa-2 cells assessed as accumulation of cells in G2/M phase at 10 uM measured after 24 hrs by propidium iodide staining-based flow cytometric analysis (reference value: 16%); type: functional
[12] = Toxicity in C57BL/6 mouse assessed as effect on body weight at 30 mg/kg, po administered for 32 days and measured on day 4,7 in presence of copper sulfate; type: organism-based; conditions: in vivo, 768 h, time 32 day
MIA PaCa-2 [13] = test: Induction of cell cycle arrest in human MIA PaCa-2 cells assessed as accumulation of cells in G0/G1 phase at 1 uM measured after 24 hrs by propidium iodide staining-based flow cytometric analysis (reference value: 53%); type: functional
[14] = molecular target: Sigma intracellular receptor 2 (Homo sapiens, UniProt Q5BJF2); test: Displacement of [3H][…]ditolylguanidine from human sigma 2 receptor transfected in human HEK293T cells assessed as inhibition constant by radioligand competition binding assay; type: cell-based
Sigma intracellular receptor 2, sequence (Q5BJF2 whole entry): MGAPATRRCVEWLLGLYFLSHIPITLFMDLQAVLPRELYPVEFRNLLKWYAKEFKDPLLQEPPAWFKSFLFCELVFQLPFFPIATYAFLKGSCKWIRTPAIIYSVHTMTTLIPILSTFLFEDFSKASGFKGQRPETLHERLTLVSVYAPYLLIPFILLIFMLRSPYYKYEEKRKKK

HCT-116 [15] = test: Induction of apoptosis in human HCT-116 cells assessed as viable cells at 10.0 uM measured after 48 hrs by Annexin V-Alexa Fluor 488/propidium iodide staining based flow cytometry (reference value: 79.69%); type: functional; conditions: read-out: Activity
MIA PaCa-2 [16] = test: Induction of apoptosis in human MIA PaCa-2 cells assessed as late apoptotic cells at […] measured after 48 hrs by Annexin V-Alexa Fluor 488/propidium iodide staining based flow cytometry (reference value: 6.63%); type: functional; conditions: dose 2.5 µM
MIA PaCa-2 [17] = test: Induction of cell cycle arrest in human MIA PaCa-2 cells assessed as accumulation of cells in S phase at 10 uM measured after 24 hrs by propidium iodide staining-based flow cytometric analysis (reference value: 31%); type: functional
[18] = molecular target: Beta-1 adrenergic receptor (Homo sapiens, UniProt P08588); test: Binding affinity to beta1 receptor (unknown origin) assessed as inhibition constant
Beta-1 adrenergic receptor, sequence (P08588 whole entry): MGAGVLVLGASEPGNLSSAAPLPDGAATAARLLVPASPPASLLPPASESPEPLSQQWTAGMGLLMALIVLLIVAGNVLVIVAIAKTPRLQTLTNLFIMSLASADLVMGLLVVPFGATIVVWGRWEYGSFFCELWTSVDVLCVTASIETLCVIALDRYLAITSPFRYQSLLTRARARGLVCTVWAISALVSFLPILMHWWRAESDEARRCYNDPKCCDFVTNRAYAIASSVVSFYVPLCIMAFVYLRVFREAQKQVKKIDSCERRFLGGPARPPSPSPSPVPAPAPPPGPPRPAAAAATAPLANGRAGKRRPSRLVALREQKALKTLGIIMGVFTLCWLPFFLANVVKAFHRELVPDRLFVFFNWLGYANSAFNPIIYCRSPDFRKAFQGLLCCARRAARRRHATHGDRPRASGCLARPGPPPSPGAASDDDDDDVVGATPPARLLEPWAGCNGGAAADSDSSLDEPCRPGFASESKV

[19] = molecular target: Alpha-2A adrenergic receptor (Homo sapiens, UniProt P08913); test: Binding affinity to alpha2A receptor (unknown origin) assessed as inhibition constant
Alpha-2A adrenergic receptor, sequence (P08913 whole entry): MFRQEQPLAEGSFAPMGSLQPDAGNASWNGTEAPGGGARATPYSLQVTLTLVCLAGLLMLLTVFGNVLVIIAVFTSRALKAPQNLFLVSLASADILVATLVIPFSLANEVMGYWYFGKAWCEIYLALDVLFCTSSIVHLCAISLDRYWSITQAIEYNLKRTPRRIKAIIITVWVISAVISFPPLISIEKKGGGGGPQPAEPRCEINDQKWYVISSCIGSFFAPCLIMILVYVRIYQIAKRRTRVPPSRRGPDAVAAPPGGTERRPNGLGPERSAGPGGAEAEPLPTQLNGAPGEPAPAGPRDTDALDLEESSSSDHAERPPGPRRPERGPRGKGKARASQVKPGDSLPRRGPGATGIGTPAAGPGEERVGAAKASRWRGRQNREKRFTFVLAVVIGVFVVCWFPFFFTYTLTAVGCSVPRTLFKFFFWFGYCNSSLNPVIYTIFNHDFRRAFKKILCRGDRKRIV

MIA PaCa-2 [20] = test: Synergistic cytotoxicity in human MIA PaCa-2 cells at upto 1 uM measured after 7 days in presence of irinotecan by crystal violet staining based analysis; type: functional, cell-based; conditions: time 7.0 day
HCT-116 [21] = test: Induction of apoptosis in human HCT-116 cells assessed as necrotic cells at […] measured after 48 hrs by Annexin V-Alexa Fluor 488/propidium iodide staining based flow cytometry (reference value: 9.06%); type: functional; conditions: dose 2.5 µM
HCT-116 [22] = test: Induction of cell cycle arrest in human HCT-116 cells assessed as accumulation of cells in G0/G1 phase at 1 uM measured after 24 hrs by propidium iodide staining-based flow cytometric analysis (reference value: 43%); type: functional
MIA PaCa-2 [23] = test: Induction of apoptosis in human MIA PaCa-2 cells assessed as necrotic cells at […] measured after 48 hrs by Annexin V-Alexa Fluor 488/propidium iodide staining based flow cytometry (reference value: 7.03%); type: functional; conditions: dose 2.5 µM
MIA PaCa-2 [24] = test: Synergistic cytotoxicity in human MIA PaCa-2 cells at upto 1 uM measured after 7 days in presence of cisplatin by crystal violet staining based analysis; type: functional, cell-based; conditions: time 7.0 day
HCT-116 [25] = test: Induction of apoptosis in human HCT-116 cells assessed as late apoptotic cells at 1.0 uM measured after 48 hrs by Annexin V-Alexa Fluor 488/propidium iodide staining based flow cytometry (reference value: 8.48%); type: functional
MIA PaCa-2 [26] = test: Induction of cell cycle arrest in human MIA PaCa-2 cells assessed as accumulation of cells in S phase at […] measured after 24 hrs by propidium iodide staining-based flow cytometric analysis (reference value: 31%); type: functional; conditions: dose 2.5 µM
MIA PaCa-2 [27] = test: Synergistic cytotoxicity against human MIA PaCa-2 cells at upto 1 uM measured after 7 days in presence of copper chloride by crystal violet staining based analysis; type: functional, cell-based; conditions: time 7.0 day
HCT-116 [28] = test: Induction of apoptosis in human HCT-116 cells assessed as early apoptotic cells at 5.0 uM measured after 48 hrs by Annexin V-Alexa Fluor 488/propidium iodide staining based flow cytometry (reference value: 2.77%); type: functional
HCT-116 [29] = test: Induction of cell cycle arrest in human HCT-116 cells assessed as accumulation of cells in G0/G1 phase at […] measured after 24 hrs by propidium iodide staining-based flow cytometric analysis (reference value: 43%); type: functional; conditions: dose 2.5 µM
MIA PaCa-2 [30] = test: Induction of apoptosis in human MIA PaCa-2 cells assessed as necrotic cells at 10.0 uM measured after 48 hrs by Annexin V-Alexa Fluor 488/propidium iodide staining based flow cytometry (reference value: 7.03%); type: functional
D(1A) dopamine receptor = D(1A) dopamine receptor (Homo sapiens, UniProt P21728); test: Binding affinity to dopamine D1 receptor (unknown origin) assessed as inhibition constant
D(1A) dopamine receptor, sequence (P21728 whole entry): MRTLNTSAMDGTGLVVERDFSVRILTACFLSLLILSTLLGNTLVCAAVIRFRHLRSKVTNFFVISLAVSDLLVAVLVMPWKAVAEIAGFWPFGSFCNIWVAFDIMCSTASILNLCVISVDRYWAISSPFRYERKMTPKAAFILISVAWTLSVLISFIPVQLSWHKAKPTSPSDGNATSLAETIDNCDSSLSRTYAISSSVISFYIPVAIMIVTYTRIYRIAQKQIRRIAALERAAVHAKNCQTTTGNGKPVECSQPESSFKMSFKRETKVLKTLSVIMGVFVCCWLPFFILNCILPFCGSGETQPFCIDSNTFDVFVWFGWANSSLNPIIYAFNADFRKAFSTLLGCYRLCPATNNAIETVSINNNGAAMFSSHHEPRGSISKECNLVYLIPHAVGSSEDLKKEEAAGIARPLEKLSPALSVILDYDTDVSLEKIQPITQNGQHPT

[31] = Cytotoxicity against HEK293 cells measured after 72 hrs by MTT assay; type: toxicity, cell-based; conditions: human
HCT-116 [32] = test: Induction of cell cycle arrest in human HCT-116 cells assessed as accumulation of cells in S phase at […] measured after 24 hrs by propidium iodide staining-based flow cytometric analysis (reference value: 47%); type: functional; conditions: dose 2.5 µM
HCT-116 [33] = test: Synergistic cytotoxicity against human HCT-116 cells at upto 1 uM measured after 6 days in presence of gold acetate by crystal violet staining based analysis; type: functional, cell-based; conditions: time 6.0 day
MIA PaCa-2 [34] = test: Induction of apoptosis in human MIA PaCa-2 cells assessed as necrotic cells at 1.0 uM measured after 48 hrs by Annexin V-Alexa Fluor 488/propidium iodide staining based flow cytometry (reference value: 7.03%); type: functional
[35] = molecular target: 5-hydroxytryptamine receptor 1B (Homo sapiens, UniProt P28222); test: Binding affinity to 5-HT1B receptor (unknown origin) assessed as inhibition constant
5-hydroxytryptamine receptor 1B, sequence (P28222 whole entry): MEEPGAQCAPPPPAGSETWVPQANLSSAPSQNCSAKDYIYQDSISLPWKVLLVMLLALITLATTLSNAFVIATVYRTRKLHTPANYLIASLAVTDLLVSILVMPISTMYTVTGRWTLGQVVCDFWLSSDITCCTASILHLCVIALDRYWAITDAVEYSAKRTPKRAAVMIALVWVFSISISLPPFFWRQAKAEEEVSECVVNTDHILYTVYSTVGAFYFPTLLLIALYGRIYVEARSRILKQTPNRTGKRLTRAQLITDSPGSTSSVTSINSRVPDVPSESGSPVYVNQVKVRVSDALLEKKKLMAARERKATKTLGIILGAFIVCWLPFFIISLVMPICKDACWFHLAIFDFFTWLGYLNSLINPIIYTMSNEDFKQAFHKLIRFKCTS

CCN(CC)CCCC(C)Nc1cnc(C(=O)Nc2ccc(Cl)c3cccnc23)cn1 (stereo unspecified)
Activity (MIA PaCa-2 [1]): Active
Ki [2]: 0.471 µM
Activity (MIA PaCa-2 [3]): Active
CL/F [4]: 98.3 mL/min/kg
viability at 1 µM (HCT-116 [5]): 78.3%
Ki [6]: 0.68 µM
solubility [7]: > 5000 µg/mL
Activity (MIA PaCa-2 [8]): Active
Activity (MIA PaCa-2 [9]): 30.8%
viability at […] (HCT-116 [10]): 68.1%
Activity (MIA PaCa-2 [11]): 17%
Activity [12]: Toxic
Activity (MIA PaCa-2 [13]): 46%
Ki [14]: 0.047 µM
viability at 10 µM (HCT-116 [15]): 32.9%
Activity (MIA PaCa-2 [16]): 25.72%
Activity (MIA PaCa-2 [17]): 14%
Ki [18]: 6.35 µM
Ki [19]: 2.74 µM
Activity (MIA PaCa-2 [20]): inactive
Activity (HCT-116 [21]): 2.87%
Activity (HCT-116 [22]): 41%
Activity (MIA PaCa-2 [23]): 5.91%
Activity (MIA PaCa-2 [24]): inactive
Activity (HCT-116 [25]): 9.6%
Activity (MIA PaCa-2 [26]): 35%
Activity (MIA PaCa-2 [27]): Active
Activity (HCT-116 [28]): 12.38%
Activity (HCT-116 [29]): 48%
Activity (MIA PaCa-2 [30]): 7.21%
Ki (D(1A) dopamine receptor): 1.44 µM
IC50 at 72 h [31]: 1.2 µM
Activity (HCT-116 [32]): 33%
Activity (HCT-116 [33]): inactive
Activity (MIA PaCa-2 [34]): 3.16%
Ki [35]: 0.646 µM

Reference: ChEMBL document CHEMBL5316327, “Design and Synthesis of Orally Active Quinolyl Pyrazinamides as Sigma 2 Receptor Ligands for the Treatment of Pancreatic Cancer” (J Med Chem, 2023)
